Data published in PubChem BioAssay (NCI).
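Values below derive from 48-hour exposures of cells grown in 96-well plates, with endpoints linearly interpolated between the two concentrations bracketing the appropriate inhibition level. GI50 marks 50% less growth. TGI denotes the concentration required for complete inhibition of growth.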 Where a SMILES comes first, the peptide text is derived from it. The star is where a group is joined. Fmoc = O=C(OCC1c2ccccc2-c2ccccc21)*; OBn = c1ccc(CO*)cc1; tBu = CC(C)(C)*

How the values were obtained:
Experiment in all cases: inhibition of tumour cell growth, NCI panel, 48 h
SNB-75 CNS = tested on: SNB-75 CNS
KM12 colon = tested on: KM12 colon
HCT-116 colon = tested on: HCT-116 colon
SR leukemia = tested on: SR leukemia
SF-295 CNS = tested on: SF-295 CNS
M14 melanoma = tested on: M14 melanoma
HCC-2998 colon = tested on: HCC-2998 colon
SK-MEL-2 melanoma = tested on: SK-MEL-2 melanoma
NCI-H522 lung = tested on: NCI-H522 lung
UACC-62 melanoma = tested on: UACC-62 melanoma

CC1CC[C@@]2(OC1)OC1C[C@H]3[C@@H]4CC=C5C[C@@H](OC6OC(CO)C(OC7OC(CO)C(O)C(O)C7O)C(O)C6OC6OC(C)C(O)C(O)C6O)CC[C@]5(C)[C@H]4CC[C@]3(C)C1[C@@H]2C (stereo partly specified) gave a TGI (SNB-75 CNS) of 5.47 µM, a TGI (KM12 colon) of 1.22 µM and a TGI (HCT-116 colon) of 2.31 µM. The TGI (SR leukemia) was 0.852 µM, the TGI (SF-295 CNS) was 5.27 µM and the TGI (M14 melanoma) was 0.859 µM. The TGI (HCC-2998 colon) was 0.89 µM, the TGI (SK-MEL-2 melanoma) was 3.2 µM and the TGI (NCI-H522 lung) was 2.93 µM. For the same compound, the TGI (UACC-62 melanoma) was 0.876 µM.
For CSC1=C(C)C(/C=N/Nc2ccc([N+](=O)[O-])cc2)=C(C)N(c2ccccc2)S1(=O)=O, the TGI (SNB-75 CNS) was > 100 µM, the TGI (KM12 colon) was > 100 µM and the TGI (HCT-116 colon) was > 100 µM. For the same compound, the TGI (SR leukemia) was > 100 µM, the TGI (SF-295 CNS) was > 100 µM and the TGI (M14 melanoma) was > 100 µM. The TGI (HCC-2998 colon) was > 100 µM, the TGI (SK-MEL-2 melanoma) was > 100 µM and the TGI (NCI-H522 lung) was > 100 µM. For the same compound, the TGI (UACC-62 melanoma) was > 100 µM.
Work on O=c1c2ccccc2n2nnc3ccc(NCCNCCO)c1c32 yielded a TGI (SNB-75 CNS) of 7.54 µM, a TGI (KM12 colon) of 7.44 µM and a TGI (HCT-116 colon) of 10.3 µM. For the same compound, the TGI (SR leukemia) was 8.05 µM, the TGI (SF-295 CNS) was 9.82 µM and the TGI (M14 melanoma) was 5.2 µM. It also gave a TGI (HCC-2998 colon) of 3.74 µM, a TGI (SK-MEL-2 melanoma) of 10.5 µM and a TGI (NCI-H522 lung) of 7.23 µM. The TGI (UACC-62 melanoma) was 8.68 µM.
COC(=O)c1sc2c(Cl)c(Cl)sc2c1Cl was tested, and the TGI (SNB-75 CNS) was > 100 µM, the TGI (KM12 colon) was > 100 µM and the TGI (HCT-116 colon) was > 100 µM. For the same compound, the TGI (SR leukemia) was > 100 µM, the TGI (SF-295 CNS) was > 100 µM and the TGI (M14 melanoma) was > 100 µM. The TGI (HCC-2998 colon) was > 100 µM, the TGI (SK-MEL-2 melanoma) was > 100 µM and the TGI (NCI-H522 lung) was > 100 µM. The TGI (UACC-62 melanoma) was > 100 µM.
With COC(=O)[C@]1(c2cc3ccccc3[nH]2)CC2CNC1C1OC(C)(C)OC21 (stereo partly specified) the TGI (SNB-75 CNS) was > 100 µM, the TGI (KM12 colon) was > 100 µM and the TGI (HCT-116 colon) was > 100 µM. For the same compound, the TGI (SR leukemia) was > 100 µM, the TGI (SF-295 CNS) was > 100 µM and the TGI (M14 melanoma) was > 100 µM. The TGI (HCC-2998 colon) was > 100 µM, the TGI (SK-MEL-2 melanoma) was > 100 µM and the TGI (NCI-H522 lung) was > 100 µM. The TGI (UACC-62 melanoma) was > 100 µM.
For CCOC(=O)NC(Nc1ccc(C(=O)O)cc1)(C(F)(F)F)C(F)(F)F, the TGI (SNB-75 CNS) was > 100 µM, the TGI (KM12 colon) was > 100 µM and the TGI (HCT-116 colon) was > 100 µM. The TGI (SR leukemia) was > 100 µM, the TGI (SF-295 CNS) was > 100 µM and the TGI (M14 melanoma) was > 100 µM. The TGI (HCC-2998 colon) was > 100 µM, the TGI (SK-MEL-2 melanoma) was > 100 µM and the TGI (NCI-H522 lung) was > 100 µM. The TGI (UACC-62 melanoma) was > 100 µM.
Cc1c(-c2ccccc2)oc(=O)c2ccccc12 gave a TGI (SNB-75 CNS) of 31.1 µM, a TGI (KM12 colon) of 51.9 µM and a TGI (HCT-116 colon) of 56.4 µM. For the same compound, the TGI (SR leukemia) was 65.4 µM, the TGI (SF-295 CNS) was 40.2 µM and the TGI (M14 melanoma) was 51.2 µM. For the same compound, the TGI (HCC-2998 colon) was 37.8 µM, the TGI (SK-MEL-2 melanoma) was 38.5 µM and the TGI (NCI-H522 lung) was 33.2 µM. The TGI (UACC-62 melanoma) was 33 µM.
C=C(C)C1CCC2(C)C1CCC1(C)C2CCC2C3(C)C4OC(OC4=O)C(C)(C)C3CCC21C (stereo unspecified) was tested, and the TGI (SNB-75 CNS) was > 100 µM, the TGI (KM12 colon) was > 100 µM and the TGI (HCT-116 colon) was > 100 µM. For the same compound, the TGI (SR leukemia) was > 100 µM, the TGI (SF-295 CNS) was > 100 µM and the TGI (M14 melanoma) was > 100 µM. The TGI (HCC-2998 colon) was > 100 µM, the TGI (SK-MEL-2 melanoma) was > 100 µM and the TGI (NCI-H522 lung) was 53.6 µM. For the same compound, the TGI (UACC-62 melanoma) was > 100 µM.
In the case of C=C(CCC(=O)N(CCc1c[nH]c2ccccc12)C(=O)c1ccccc1CSCC)C(=O)OC, the TGI (SNB-75 CNS) is reported as > 100 µM, the TGI (KM12 colon) is reported as > 100 µM and the TGI (HCT-116 colon) is reported as > 100 µM. The TGI (SR leukemia) was > 100 µM, the TGI (SF-295 CNS) was > 100 µM and the TGI (M14 melanoma) was > 100 µM. For the same compound, the TGI (HCC-2998 colon) was > 95.4 µM, the TGI (SK-MEL-2 melanoma) was > 100 µM and the TGI (NCI-H522 lung) was > 100 µM. The TGI (UACC-62 melanoma) was > 100 µM.
With CCOC(=O)c1c(-c2ccc(Cl)cc2)c(C#N)c(=S)n(C2OC(COC(C)=O)C(OC(C)=O)C(OC(C)=O)C2OC(C)=O)c1C (stereo unspecified) the TGI (SNB-75 CNS) was 99 µM, the TGI (KM12 colon) was > 100 µM and the TGI (HCT-116 colon) was > 100 µM. For the same compound, the TGI (SR leukemia) was > 100 µM, the TGI (SF-295 CNS) was > 100 µM and the TGI (M14 melanoma) was > 100 µM. The TGI (HCC-2998 colon) was > 100 µM, the TGI (SK-MEL-2 melanoma) was > 66 µM and the TGI (NCI-H522 lung) was > 100 µM. For the same compound, the TGI (UACC-62 melanoma) was > 100 µM.
In the case of FC(F)(Sc1ncccn1)c1nc2ccccc2o1, the TGI (SNB-75 CNS) is reported as 81.2 µM, the TGI (KM12 colon) is reported as > 100 µM and the TGI (HCT-116 colon) is reported as > 100 µM. For the same compound, the TGI (SR leukemia) was > 100 µM, the TGI (SF-295 CNS) was > 100 µM and the TGI (M14 melanoma) was > 100 µM. For the same compound, the TGI (HCC-2998 colon) was > 100 µM, the TGI (SK-MEL-2 melanoma) was > 100 µM and the TGI (NCI-H522 lung) was > 100 µM. The TGI (UACC-62 melanoma) was > 100 µM.
For CN=C1C=C(/N=C2/C=C(N/C(=C\C#N)C(C)(C)O)OC2(C)C)OC1(C)C, the TGI (SNB-75 CNS) was > 64 µM, the TGI (KM12 colon) was > 100 µM and the TGI (HCT-116 colon) was 69.4 µM. The TGI (SR leukemia) was > 68.5 µM, the TGI (SF-295 CNS) was > 100 µM and the TGI (M14 melanoma) was > 78.4 µM. For the same compound, the TGI (HCC-2998 colon) was > 100 µM, the TGI (SK-MEL-2 melanoma) was > 82.8 µM and the TGI (NCI-H522 lung) was 69 µM. The TGI (UACC-62 melanoma) was > 85.8 µM.
With CC(OC(C)(C)C)C(NC(=O)OCC1c2ccccc2-c2ccccc21)C(=O)NC(Cc1ccccc1)C(=O)OCc1ccccc1 (stereo unspecified) (Fmoc-Thr(tBu)-Phe-OBn; configuration not given here) the TGI (SNB-75 CNS) was > 100 µM, the TGI (KM12 colon) was > 100 µM and the TGI (HCT-116 colon) was > 100 µM. For the same compound, the TGI (SR leukemia) was > 100 µM, the TGI (SF-295 CNS) was > 100 µM and the TGI (M14 melanoma) was > 100 µM. For the same compound, the TGI (HCC-2998 colon) was > 100 µM, the TGI (SK-MEL-2 melanoma) was > 100 µM and the TGI (NCI-H522 lung) was > 100 µM. The TGI (UACC-62 melanoma) was > 100 µM.
CC(=O)CCN1CC2CN=NC2(C#N)C1 (stereo unspecified) was tested, and the TGI (SNB-75 CNS) was > 100 µM, the TGI (KM12 colon) was > 100 µM and the TGI (HCT-116 colon) was > 100 µM. The TGI (SR leukemia) was > 100 µM, the TGI (SF-295 CNS) was > 100 µM and the GI50 (M14 melanoma) was > 100 µM. For the same compound, the TGI (M14 melanoma) was > 100 µM, the TGI (HCC-2998 colon) was > 100 µM and the TGI (SK-MEL-2 melanoma) was > 100 µM. The TGI (NCI-H522 lung) was > 20.9 µM and the TGI (UACC-62 melanoma) was > 100 µM.
In the case of Nc1c(-c2ccccc2)c2ccc([N+](=O)[O-])cc2c(=O)n1-c1cccc(C(=O)O)c1, the TGI (SNB-75 CNS) is reported as > 100 µM, the TGI (KM12 colon) is reported as > 100 µM and the TGI (HCT-116 colon) is reported as > 100 µM. The TGI (SR leukemia) was > 100 µM, the TGI (SF-295 CNS) was > 100 µM and the TGI (M14 melanoma) was > 100 µM. The TGI (HCC-2998 colon) was > 100 µM, the TGI (SK-MEL-2 melanoma) was > 100 µM and the TGI (NCI-H522 lung) was > 100 µM. For the same compound, the TGI (UACC-62 melanoma) was > 100 µM.
